Laboratory results reported in patent publication US20060193797A1, “Chroman derivatives as lipoxygenase inhibitors” (Galileo Pharmaceuticals, Inc, priority 2005, published 2006).

Key:
[1] = target: T1, porcine leukocyte 12/15-lipoxygenase (Sus scrofa, UniProt P16469); experiment: 12/15-Lipoxygenase Enzyme Assay (colorimetric, ferric oxidation of xylenol orange); format: biochemical; conditions: 70 μM arachidonic acid, 10 minute incubation at room temperature, 5 concentrations in triplicate starting at 10 μM; read-out: inhibition of 12/15-Lipoxygenase, IC50
T1 construct: purchased Cayman 60300
T1 sequence (P16469 1-663): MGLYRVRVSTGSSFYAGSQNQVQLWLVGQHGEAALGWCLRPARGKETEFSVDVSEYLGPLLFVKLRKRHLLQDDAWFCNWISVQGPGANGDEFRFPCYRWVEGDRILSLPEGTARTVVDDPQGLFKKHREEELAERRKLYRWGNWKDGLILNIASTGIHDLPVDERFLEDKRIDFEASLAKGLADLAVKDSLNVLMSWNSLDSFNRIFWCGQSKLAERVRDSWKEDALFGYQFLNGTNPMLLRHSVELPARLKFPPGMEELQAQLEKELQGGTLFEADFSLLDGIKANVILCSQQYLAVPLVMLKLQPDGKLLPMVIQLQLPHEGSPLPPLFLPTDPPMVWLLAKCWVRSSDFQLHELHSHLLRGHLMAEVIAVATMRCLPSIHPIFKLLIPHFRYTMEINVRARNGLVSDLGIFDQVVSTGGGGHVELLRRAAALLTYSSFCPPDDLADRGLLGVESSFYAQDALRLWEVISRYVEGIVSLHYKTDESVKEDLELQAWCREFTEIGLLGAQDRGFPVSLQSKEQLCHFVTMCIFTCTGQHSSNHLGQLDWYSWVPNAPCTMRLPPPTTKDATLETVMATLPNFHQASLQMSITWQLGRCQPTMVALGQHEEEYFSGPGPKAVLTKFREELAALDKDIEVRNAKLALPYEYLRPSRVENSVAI
Protocol: This procedure was used for measuring the enzymatic activity of porcine leukocyte 12/15-lipoxygenase using a colorimetric method based on the ferric oxidation of xylenol orange.
Porcine Leukocyte 12/15-lipoxygenase (Cayman Cat # 60300) was used in this assay. Test compound and/or vehicle were added to 1.3 μL 12/15-lipoxygenase in 50 mM Tris-HCl buffer, pH 7.4. The reaction was initiated by addition of 70 μM arachidonic acid in Tris-HCl buffer, pH 7.4 and terminated after a 10 minute incubation at room temperature by addition of FOX reagent (25 mM sulfuric acid, 100 μM xylenol orange, 100 μM iron (II) sulphate, methanol:water 9:1). The yellow color of acidified xylenol orange was converted to a blue color by the lipid hydroperoxide-mediated oxidation of Fe^2+ ions and the interaction of the resulting Fe^3+ ions with the dye. The complex was allowed to form during a 1 hour incubation at room temperature with shaking. Absorbance of the Fe^3+ complex was then measured at […] using a spectrophotometer.
Negative controls contained enzyme during the incubation step but substrate was not added until after the FOX reagent.
Compounds are screened at 5 concentrations in triplicate starting at 10 μM.

[2] = target: T2, human recombinant 5-lipoxygenase (Homo sapiens, UniProt P09917); experiment: 5-Lipoxygenase Enzyme Assay (colorimetric, ferric oxidation of xylenol orange); format: biochemical; conditions: 70 μM arachidonic acid, 10 minute incubation at room temperature, 5 concentrations in triplicate starting at 10 μM; read-out: inhibition of 5-Lipoxygenase, IC50
T2 construct: purchased Cayman 60402
T2 sequence (P09917 1-674): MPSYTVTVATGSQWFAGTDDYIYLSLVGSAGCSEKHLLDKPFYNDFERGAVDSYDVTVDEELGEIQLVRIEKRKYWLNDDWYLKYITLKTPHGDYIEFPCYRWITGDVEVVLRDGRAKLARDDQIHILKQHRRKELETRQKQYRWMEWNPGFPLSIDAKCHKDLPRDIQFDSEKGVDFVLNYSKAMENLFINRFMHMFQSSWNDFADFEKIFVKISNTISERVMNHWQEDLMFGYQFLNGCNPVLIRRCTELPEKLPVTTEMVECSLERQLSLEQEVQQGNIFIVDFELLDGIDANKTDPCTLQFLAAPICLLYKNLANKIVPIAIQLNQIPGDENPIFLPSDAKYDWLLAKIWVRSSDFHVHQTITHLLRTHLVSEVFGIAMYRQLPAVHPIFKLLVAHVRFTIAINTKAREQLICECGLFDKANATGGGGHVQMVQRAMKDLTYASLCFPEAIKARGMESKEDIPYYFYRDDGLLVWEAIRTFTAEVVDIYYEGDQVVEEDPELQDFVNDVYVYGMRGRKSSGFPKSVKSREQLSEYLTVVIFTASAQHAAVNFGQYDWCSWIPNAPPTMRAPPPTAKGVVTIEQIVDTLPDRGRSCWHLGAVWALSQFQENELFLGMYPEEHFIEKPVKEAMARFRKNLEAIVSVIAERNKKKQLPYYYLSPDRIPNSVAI
Protocol: This procedure was used for measuring the enzymatic activity of human recombinant 5-lipoxygenase using a colorimetric method based on the ferric oxidation of xylenol orange.
Human recombinant 5-lipoxygenase (Cayman Cat # 60402) was used in this assay. The test compound and/or vehicle was added to 0.5 μL 5-lipoxygenase in 50 mM Tris-HCl buffer, pH 7.4. The reaction was initiated by addition of 70 μM arachidonic acid in Tris-HCl buffer, pH 7.4, and terminated after a 10 minute incubation at room temperature by addition of FOX reagent (25 mM sulfuric acid, 100 μM xylenol orange, 100 μM iron (II) sulphate, methanol:water 9:1). The yellow color of acidified xylenol orange was converted to a blue color by the lipid hydroperoxide-mediated oxidation of Fe^2+ ions and the interaction of the resulting Fe^3+ ions with the dye. The complex was allowed to form during a 1 hour incubation at room temperature with shaking. Absorbance of the Fe^3+ complex was then measured at […] using a spectrophotometer.
Negative controls contained enzyme during the incubation step but substrate was not added until after the FOX reagent. Compounds were screened at 5 concentrations in triplicate starting at 10 μM.

Row | Structure (SMILES) | IC50 [1] | IC50 [2]
1 | CO/N=C1/Cc2c(C)c(O)c(C)c(C)c2OC1(C)C [6-hydroxy-2,2,5,7,8-pentamethylchroman-3-one O-methyl oxime] | < 5 µM | 
2 | Cc1c(C)c2c(c(C)c1O)C(=NN(C)C)CC(C)(C)O2 [6-Hydroxy-2,2,5,7,8-pentamethyl-2,3-dihydro-4H-chromen-4-one dimethylhydrazone] |  | < 3 µM
3 | CONC1CC(C)(C)Oc2c(C)c(C)c(O)c(C)c21 (centres unmarked) [4-Methoxyamino-2,2,5,7,8-pentamethyl-chroman-6-ol] | < 5 µM | < 3 µM

Second part, the compound after the results:

Row | IC50 [1] | IC50 [2] | Structure (SMILES)
4 | < 5 µM | < 3 µM | Cc1c(C)c2c(c(C)c1O)C(O)CC(C)(C)O2 (centres unmarked) [2,2,5,7,8-pentamethylchroman-4,6-diol]
5 |  | < 3 µM | Cc1c(O)cc2c(c1C)OC(C)(C)CC2O (centres unmarked) [2,2,7,8-tetramethylchroman-4,6-diol]
6 | < 5 µM | < 3 µM | CON=C1CC(C)(C)Oc2c(C)c(C)c(O)c(C)c21 [6-Hydroxy-2,2,5,7,8-pentamethyl-chroman-4-one O-methyl-oxime]
7 | < 5 µM | < 3 µM | CON=C1CC(C)(C)Sc2c(C)c(C)c(O)c(C)c21 [6-Hydroxy-2,2,5,7,8-pentamethyl-thiochroman-4-one O-methyl-oxime]
